How the values were obtained:
Type in all cases: cell-based, human
[1] = system: MSCs; assay: MSC proliferation with HOXA9 inhibitor; details: compared with DMSO control
Experimental: (§1) To validate the effects of HOXA9 knockdown on MSCs, effects of HOXA9 specific inhibitor DB818 on MSCs were determined.

[2] = system: MSCs; assay: CFU-F (colony formation) of MSCs; details: compared with DMSO control
Experimental: as §1

[3] = system: MSCs; assay: Three-lineage differentiation of MSCs, staining (oil red, AP, alcian blue); details: compared with DMSO control
Text: (§2) Differentiation potential is the most important property of MSCs. To determine the effects of HOXA9 knockdown on the differentiation potential of MSCs into three lineages, HOXA9 knockdown and scrambled MSCs were induced into three lineages of differentiation. Compared with scrambled control, HOXA9 knockdown decreased oil red stain for oil droplet in adipogenesis, AP stain for alkaline phosphatase in osteogenesis and alcian blue stain for proteoglycan in chondrogenesis [FIG. 6a]. Stain data were validated by qPCR for lineage specific genes, compared with scrambled control, HOXA9 knockdown decreased adipogenenic genes (CEBPα, PPARγ, LPL and αP2), osteogenic genes (OC, OPN and ALP) and chondrogenic genes (COL2A1, AGC1, SOX9 and COL10A1) [FIG. 6b]. AP assay for quantifying alkaline phosphatase activity was consistent with AP stain, HOXA9 knockdown decreased alkaline phosphatase activity [FIG. 6b].
as §1

[4] = system: MSCs; assay: qPCR for lineage specific genes in differentiated MSCs; details: compared with control
Text: as §2, §1

AP stain for alkaline phosphatase in osteogenesis ([3]; osteogenesis): decreased
Structure (SMILES): N=C(N)c1ccc(-c2ccc(-c3nc4ccc(C(=N)N)cc4[nH]3)s2)cc1 [DB818]
MSC proliferation [1]: abolished
CFU-F [2]: abolished
oil red stain for oil droplet in adipogenesis ([3]; adipogenesis): decreased
alcian blue stain for proteoglycan in chondrogenesis ([3]; chondrogenesis): decreased
adipogenenic genes (CEBPα, PPARγ, LPL and αP2) [4]: decreased
chondrogenic genes (COL2A1, AGC1, SOX9 and COL10A1) [4]: decreased
osteogenic genes (RUNX2 and COL1A1) [4]: decreased

Source: US20260259194A1, “METHOD OF MONITORING MESENCHIMAL STEM CELL (MSC) POTENCY AND IMPROVING MSC DIFFERENTIATION POTENTIAL” (AGENCY FOR SCIENCE, TECHNOLOGY AND RESEARCH, priority 2022, published 2026)
